Results from patent publication US20230011869A1 (Hoffmann-La Roche Inc., priority 2018, published 2023).
Counter-ions that a name gives are not always drawn.

system: Acinetobacter baumannii ATCC17978; assay: Antimicrobial susceptibility testing: 90% growth inhibitory concentration (IC90) determination, Iso-Sensitest broth; type: cell-based; settings: 90% growth inhibitory concentration, Acinetobacter baumannii ATCC17978, Iso-Sensitest broth, OD 600 nm over 16 h; read-out: ATCC17978 IC90
In short: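 A. baumannii ATCC17978 grown in Iso-Sensitest broth across 10 compound concentrations at 35±2 °C.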

`CNCC(=O)N1CCN(C(=O)c2ccc(Nc3nccn4c(-c5ccc(OC)c(Cl)c5)cnc34)cc2C)CC1` [Example 322, 1-[4-[4-[[3-(3-chloro-4-methoxyphenyl)imidazo[1,2-a]pyrazin-8-yl]amino]-2-methylbenzoyl]piperazin-1-yl]-2-(methylamino)ethanone; hy-drochloride] gave an IC90 of 280 nM.

same assay, conditions: Acinetobacter baumannii, ATCC17978, 16 h, read-out: ATCC17978 IC90, 90% growth inhibitory concentration, Acinetobacter baumannii ATCC17978, Iso-Sensitest broth, OD 600 nm over 16 h

First: Cc1cc(Nc2nccn3c(-c4ccc(OC(F)F)cc4)cnc23)ccc1C(=O)N1CCC(C(=O)N(C)CC(O)CO)CC1 (stereo not drawn) [Example 313, 1-[4-[[3-[4-(difluoromethoxy)phenyl]imi-dazo[1,2-a]pyrazin-8-yl]amino]-2-methylbenzoyl]-N-(2,3-dihydroxypropyl)-N-methylpiperidine-4-carboxamide]
Second: Cc1cc(Nc2nccn3c(-c4ccc(OC(F)F)cc4)cnc23)ccc1C(=O)N1CCC(C(=O)N2C[C@@H](O)[C@@H](O)[C@@H](O)C2)CC1 [Example 326, [4-[[3-[4-(difluoromethoxy)phenyl]imi-dazo[1,2-a]pyrazin-8-yl]amino]-2-methylphenyl]-[4-[rac-(3R,5S)-3,4,5-trihydroxypiperidine-1-carbonyl]piperidin-1-yl]methanone]
The IC90 of the first is 1.6-fold lower: 230 nM for the first, 360 nM for the second.

`CCNCC(=O)N1CCN(C(=O)c2ccc(Nc3nccn4c(-c5ccc(OC(F)F)cc5)cnc34)cc2C)CC1` [Example 314, 1-[4-[4-[[3-[4-(difluoromethoxy)phenyl]imi-dazo[1,2-a]pyrazin-8-yl]amino]-2-methylbenzoyl]piperazin-1-yl]-2-(ethylamino)ethanone; hydro-chloride] and `CNCC(=O)N1CCN(C(=O)c2ccc(Nc3nccn4c(-c5ccc(OC(F)F)cc5)cnc34)cc2C)CC1` [Example 320, 1-[4-[4-[[3-[4-(difluoromethoxy)phenyl]imi-dazo[1,2-a]pyrazin-8-yl]amino]-2-methylbenzoyl]piperazin-1-yl]-2-(methylamino)ethanone; hy-drochloride] are within 1.5-fold of each other in IC90: 230 nM for the first, 280 nM for the second.

`Cc1cc(Nc2nccn3c(-c4ccc(OC(F)F)cc4)cnc23)ccc1C(=O)N1CCN(C(=O)[C@H]2CNCCO2)CC1` [Example 315, [4-[[3-[4-(difluoromethoxy)phenyl]imi-dazo[1,2-a]pyrazin-8-yl]amino]-2-methylphenyl]-[4-[(2R)-morpholine-2-carbonyl]piperazin-1-yl]methanone; hydrochloride] and `Cc1cc(Nc2nccn3c(-c4ccc(OC(F)F)cc4)cnc23)ccc1C(=O)N1CCN(C(=O)[C@H]2[C@@H]3CNC[C@@H]32)CC1` [Example 319, [4-[[3-[4-(difluoromethoxy)phenyl]imi-dazo[1,2-a]pyrazin-8-yl]amino]-2-methylphenyl]-[4-[rac-(1R,5S)-3-azabicyclo[3.1.0]hexane-6-carbonyl]piperazin-1-yl]methanone; hydrochloride] are within 1.5-fold of each other in IC90: 240 nM for the first, 260 nM for the second.

Going from `Cc1cc(Nc2nccn3c(-c4ccc(OC(F)F)cc4)cnc23)ccc1C(=O)N1CCN(C(=O)CNC(=N)N)CC1` [Example 316, 1-[2-[4-[4-[[3-[4-(difluoromethoxy)phenyl]imi-dazo[1,2-a]pyrazin-8-yl]amino]-2-methylbenzoyl]piperazin-1-yl]-2-oxoethyl]guanidine; formic acid] to `Cc1cc(Nc2nccn3c(-c4ccc(OC(F)F)cc4)cnc23)ccc1C(=O)N1CCN(C(=O)C[C@H](C)N)CC1` [Example 327, (3S)-3-amino-1-[4-[4-[[3-[4-(difluoromethoxy)phenyl]imi-dazo[1,2-a]pyrazin-8-yl]amino]-2-methylbenzoyl]piperazin-1-yl]butan-1-one; hydrochloride], the IC90 rises from 240 nM to 380 nM (1.6-fold).

First: Cc1cc(Nc2nccn3c(-c4ccc(OC(F)F)cc4)cnc23)ccc1C(=O)N1CCN(C(=O)[C@@H](N)C(C)C)CC1 [Example 317, (2S)-2-amino-1-[4-[4-[[3-[4-(difluoromethoxy)phenyl]imi-dazo[1,2-a]pyrazin-8-yl]amino]-2-methylbenzyol]piperazin-1-yl]-3-methylbutan-1-one; hydrochloride]
Second: Cc1cc(Nc2nccn3c(-c4ccc(OC(F)F)cc4)cnc23)ccc1C(=O)N1CCN(C(=O)CC(C)(C)N)CC1 [Example 329, 3-amino-1-[4-[4-[[3-[4-(difluoromethoxy)phenyl]imi-dazo[1.2-a]pyrazin-8-yl]amino]-2-methylbenzoyl]piperazin-1-yl]-3-methylbutan-1-one; hydrochloride]
The IC90 of the first is 1.7-fold lower: 240 nM for the first, 400 nM for the second.

`Cc1cc(Nc2nccn3c(-c4ccc(OC(F)F)cc4)cnc23)ccc1C(=O)N1CCC(C(=O)N2C3CCC2CNC3)CC1` [Example 318, [4-(3,8-diazabicyclo[3.2.1]octane-8-carbonyl)piperidin-1-yl]-[4-[[3-[4-(difluoromethoxy)phenyl]imi-dazo[1,2-a]pyrazin-8-yl]amino]-2-methylphenyl]methanone; hy-drochloride] and `Cc1cc(Nc2nccn3c(-c4ccc(OC(F)F)cc4)cnc23)ccc1C(=O)N1CCC(C(=O)N2CCCNCC2)CC1` [Example 325, [4-(1,4-diazepane-1-carbonyl)piperidin-1-yl]-[4-[[3-[4-(difluoromethoxy)phenyl]imi-dazo[1,2-a]pyrazin-8-yl]amino]-2-methylphenyl]methanone; hy-drochloride] are within 1.5-fold of each other in IC90: 250 nM for the first, 340 nM for the second.

`CNCCNC(=O)C1CCN(C(=O)c2ccc(Nc3nccn4c(-c5ccc(OC)c(F)c5F)cnc34)cc2C)CC1` [Example 321, 1-[4-[[3-(2,3-difluoro-4-methoxyphenyl)imidazo[1,2-a]pyrazin-8-yl]amino]-2-methylbenzoyl]-N-[2-(methylamino)ethyl]piperidine-4-carboxamide; hydrochloride] and `CCc1cc(Nc2nccn3c(-c4ccc(OC)c(F)c4)cnc23)ccc1C(=O)N1CCC(C(=O)NCCNC)CC1` [Example 330, 1-[2-ethyl-4-[[3-(3-fluoro-4-methoxyphenyl)imidazo[1,2-a]pyrazin-8-yl]amino]benzoyl]-N-[2-(methylamino)ethyl]piperidine-4-carboxamide; hydrochloride] are within 1.5-fold of each other in IC90: 280 nM for the first, 400 nM for the second.

`Cc1cc(Nc2nccn3c(-c4ccc(OC(F)F)cc4)cnc23)ccc1C(=O)N1CCC(C(=O)N2CCNC(C)(C)C2)CC1` [Example 323, [4-[[3-[4-(difluoromethoxy)phenyl]imi-dazo[1,2-a]pyrazin-8-yl]amino]-2-methylphenyl]-[4-(3,3-dimethylpiperazin-1-carbonyl)piperidin-1-yl]methanone; hydrochloride] and `Cc1cc(Nc2nccn3c(-c4ccc(OC(F)F)cc4)cnc23)ccc1C(=O)N1CCN(C(=O)C2(F)CCNCC2)CC1` [Example 324, [4-[[3-[4-(difluoromethoxy)phenyl]imi-dazo[1,2-a]pyrazin-8-yl]amino]-2-methylphenyl]-[4-(4-fluoropiperidine-4-carbonyl)piperazin-1-yl]methanone] are within 1.5-fold of each other in IC90: 300 nM for the first, 330 nM for the second.

In the case of `COc1ccc(-c2cnc3c(Nc4ccc(C(=O)N5CCC(C(=O)NCC6CNC6)CC5)c(C)c4)nccn23)cc1F` [Example 328, N-(azetidin-3-ylmethyl)-1-[4-[[3-(3-fluoro-4-methoxyphenyl)imidazo[1,2-a]pyrazin-8-yl]amino]-2-methylbenzoyl]piperidine-4-carboxamide; hydrochloride], the IC90 is reported as 390 nM.
